Experimental data from patent publication US12629382B2, “Therapy” (Vestlandets Innovasjonsselskap AS, priority 2019, dated 2026).

What was measured:
A172 glioma cells = experiment: Intracellular GSH, GSH-Glo assay, A172 cells; format: cell-based; settings: Homo sapiens, 48 h, normalized to untreated control; for activity at 250 µM: A 172, 250 μM compound, read-out: Intracellular GSH level A172 250 μM; for activity at 500 µM: A 172, 500 μM compound, read-out: Intracellular GSH level A172 500 μM
Description: (§1) The cancer cell lines A172, A375, U87 and MCF7 were purchased from American Type Culture Collection (ATCC; Manassas, Va., USA). Cells were cultured in Dulbecco's Modified Eagle's Medium (DMEM) supplemented with 10% fetal bovine serum, 2% v/v L-glutamine, 3.2% v/v non-essential amino acids, antibiotics 2% v/v (penicillin-streptomycin), and 0.02% v/v Plasmocin at 37° C. and 5% CO2.
(§2) xCT expression of cancer cell lines was evaluated by western blotting from protein samples of cell lysates as described in Sleire et al., Oncogene 34: 5951-5959, 2015. Protein concentrations were determined by BCA assay (Thermo Fisher Scientific, USA) followed by SDS PAGE and immunoblotting using rabbit anti-xCT (Thermo Fisher Scientific) and rabbit anti-GAPDH (Abcam, Cambridge, UK) as a loading control. The compounds were dissolved in dimethylsulfoxide (DMSO) (Sigma Aldrich, Germany) and stock concentrations of 100 mM were stored at −20° C. in aliquots. Final concentrations were made in growth medium before adding to the cell monolayers.
(§3) The compounds were evaluated based on the measurement of intracellular Glutathione (GSH) which was performed by the GSH-Glo assay (Promega, Madison, WI, USA, cat #V6912) according to the manufacturer's recommended procedures. 5000 cells per well were seeded in a flat bottomed 96-well plate. After attachment to the well surface, cells were exposed to 250 μM and 500 μM of each compound for 48 h. After that, GSH-Glo reagent was added followed by short incubation and addition of luciferin detection reagent. Bioluminescence was measured using a luminometer (Victor 3 1420 multi-label counter, Perkins Elmer, Waltham, MA, USA). IC50 doses for the compounds SAS, DC10 and DC14 were determined in A172 glioma cells, using the GraphPad Prism v6 software (GraphPad Software, Inc. CA, USA). All measurements were normalized to the untreated control and were performed three times.

A375 = experiment: Intracellular GSH, GSH-Glo assay, A375 cells; format: cell-based; settings: Homo sapiens, 48 h, normalized to untreated control; for activity at 250 µM: A-375, 250 μM compound, read-out: Intracellular GSH level A375 250 μM; for activity at 500 µM: A-375, 500 μM compound, read-out: Intracellular GSH level A375 500 μM
Description: as §1, §2, §3

MCF7 = experiment: Intracellular GSH, GSH-Glo assay, MCF7 cells; format: cell-based; settings: Homo sapiens, 48 h, normalized to untreated control; for activity at 250 µM: 250 μM compound, read-out: Intracellular GSH level MCF7 250 μM; for activity at 500 µM: 500 μM compound, read-out: Intracellular GSH level MCF7 500 μM
Description: as §1, §2, §3

U87 = experiment: Intracellular GSH, GSH-Glo assay, U87 cells; format: cell-based; settings: Homo sapiens, U-87 MG, 48 h, normalized to untreated control; for activity at 250 µM: 250 μM compound, read-out: Intracellular GSH level U87 250 μM; for activity at 500 µM: 500 μM compound, read-out: Intracellular GSH level U87 500 μM
Description: as §1, §2, §3

xCT antiport = molecular target: T1, xCT antiport (Homo sapiens, UniProt Q9UPY5); settings: reported in the literature; cited from earlier work
T1 sequence (Q9UPY5 1-501): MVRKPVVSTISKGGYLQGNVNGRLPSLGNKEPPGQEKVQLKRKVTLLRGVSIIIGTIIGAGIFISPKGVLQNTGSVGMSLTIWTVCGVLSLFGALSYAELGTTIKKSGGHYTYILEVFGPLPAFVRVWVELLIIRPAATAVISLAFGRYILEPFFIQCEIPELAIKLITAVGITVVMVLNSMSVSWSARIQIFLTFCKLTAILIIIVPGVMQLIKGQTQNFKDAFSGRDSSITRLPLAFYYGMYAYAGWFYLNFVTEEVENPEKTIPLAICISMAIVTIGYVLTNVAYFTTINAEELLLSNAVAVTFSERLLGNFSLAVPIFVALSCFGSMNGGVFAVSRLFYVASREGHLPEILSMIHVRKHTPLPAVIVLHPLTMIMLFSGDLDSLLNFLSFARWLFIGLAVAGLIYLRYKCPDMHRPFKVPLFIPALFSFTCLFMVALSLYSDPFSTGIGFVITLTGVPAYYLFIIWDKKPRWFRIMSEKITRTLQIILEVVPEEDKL
T1 sequence (P08195 1-529 partner): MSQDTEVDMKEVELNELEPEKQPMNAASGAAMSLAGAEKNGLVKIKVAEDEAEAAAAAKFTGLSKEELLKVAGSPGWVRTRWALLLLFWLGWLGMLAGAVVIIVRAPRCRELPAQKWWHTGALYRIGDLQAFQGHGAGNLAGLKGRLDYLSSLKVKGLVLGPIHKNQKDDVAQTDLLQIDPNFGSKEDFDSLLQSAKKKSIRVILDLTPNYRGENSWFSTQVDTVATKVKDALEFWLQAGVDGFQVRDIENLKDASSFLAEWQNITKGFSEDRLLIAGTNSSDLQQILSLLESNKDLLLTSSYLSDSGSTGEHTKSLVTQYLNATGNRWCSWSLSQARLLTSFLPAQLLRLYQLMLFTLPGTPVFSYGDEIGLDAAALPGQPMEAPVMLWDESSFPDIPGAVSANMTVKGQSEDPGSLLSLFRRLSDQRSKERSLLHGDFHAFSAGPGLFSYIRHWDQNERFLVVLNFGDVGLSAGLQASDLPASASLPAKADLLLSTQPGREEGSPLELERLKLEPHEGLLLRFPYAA

[1] = Assessment of toxicity associated with DC10 in mice; format: in vivo; settings: 16 mg by oral gavage, NOD/Scid mice, 24 or 48 hours
Source text: (§4) Experiments were approved by the Norwegian Animal Research Authority (Oslo, Norway) in accordance with the Guide for the Care and Use of Laboratory Animals (Institute for Laboratory Animal Research, National Research Council. Washington, D.C.: National Academy Press, 1996). NOD/Scid mice were kept at the animal facility at Department of Biomedicine at the University of Bergen. The animals were provided a standard pellet diet and tap water ad libitum. They were kept in a pathogen free environment at a constant temperature and humidity, and standard 12/12 h light and dark cycle.
DC10 was dissolved in distilled water and administered as a slurry by oral gavage. 16 mg was administered in a volume of 0.2 ml to each animal. […] Blood was sampled through heart puncture with a 3 ml syringe and 0.75 to 1 ml blood was collected. 250 μl was transferred to EDTA tubes that were tilted 15 times to avoid coagulation. The remaining volumes were transferred to 1.5 ml cryotubes and left to coagulate for 3 minutes before centrifugation at 2200 RCF for 10 minutes. This was followed by transfer of the supernatant to new cryotubes that were kept at −20° C., then thawed immediately prior to analysis at the clinical laboratory at Haukeland University Hospital. Blood collected on EDTA tubes underwent hematological analyses, whereas serum underwent biochemical analyses. Organs were also harvested, fixed on 4% formalin embedded in paraffin, sectioned and stained with hematoxylin and esosin.

A375 melanoma cells = experiment: Validation of DC10 as a radiosensitizer in vivo, subcutaneous A375 tumours; set-up: species or system NOD/Scid mice; settings: DC10+RT: 8 mg DC10 on day 14, 4 Gy radiation at day 15, compared with control, DC10 alone
Source text: as §4
In this study 20 NOD/Scid mice were grafted with A375 melanoma cells. The A375 cell line was maintained in incubators at 37° C. and 5% CO2 prior to use in the animal experiment. A375 was cultured in DMEM (Sigma-Aldrich, St-Louis, MO, USA) with the supplement of 10% fetal bovine serum (FBS), 3.2% non-essential amino acids, 100 units/mL Penicillin/Streptomycin, […] L-glutamine (all Lonza, Cologne, Germany). Cells were passaged in vitro in medium sized 75 cm^2 culture flasks. […]
For induction of subcutaneous tumours, 5×10^5 A375 cells were injected in the right flank of 20 NOD/SCID mice, and the animals were randomly assigned to 4 groups with […]. […] Tumour growth data for the treatment groups and different time points were analysed with repeated measures for 2-way Anova analysis.

Row | Structure (SMILES) | activity at 250 µM (A172 glioma cells) | activity at 500 µM (A172 glioma cells) | activity at 250 µM (A375) | activity at 500 µM (A375) | activity at 250 µM (MCF7) | activity at 500 µM (MCF7) | activity at 250 µM (U87) | activity at 500 µM (U87) | xCT activity (xCT antiport) | Clinical inspection [1] | Hematological analysis: hemoglobin, thrombocytes and leukocytes [1] | Histopathological examination of organs [1] | Macroscopic inspection of brain, lungs, heart, intestines, liver, kidneys and spleen [1] | Biochemical blood analysis: S-Kreatinin, γ-GT, S-ASAT, S-ALAT, Amylase, S-Glukose ([1]; serum) | Tumour volume versus the other groups (A375 melanoma cells)
1 | O=C(O)c1cc(/N=N/c2ccc(S(=O)(=O)Nc3ccccn3)cc2)ccc1O [SAS, Sulfasalazine, reference compound] | 15% | 2.1% | 13.5% | 5.3% | 26.2% | 7.6% | 14% | 8% | blocking the cell membrane xCT antiport | – | – | – | – | – | –
2 | Nc1ccc(O)c(C(=O)O)c1 [mesalazine, 5-amino-2-hydroxybenzoic acid] | – | – | – | – | – | – | – | – | without xCT activity | – | – | – | – | – | –
3 | O=C(O)c1cc(/C=C/c2ccc(-c3ccccc3)cc2)ccc1O [DC10, (E)-5-(2-([1,1′-biphenyl]-4-yl)vinyl)-2-hydroxybenzoic acid] | 10.4% | 2.3% | 27.6% | 3.1% | 28% | 10.9% | 76.1% | 7.3% | – | did not reveal any signs, symptoms or deficits | normal | did not show evidence of inflammation or other signs of tissue injury | appeared normal | no significant elevation in S-Kreatinin (Kidney function), or shift in γ-GT, S-ASAT, S-ALAT, Amylase and S-Glukose | significantly smaller
4 | Nc1ccc(S(=O)(=O)Nc2ccccn2)cc1 [sulfapyridine, 4-amino-N-(pyridin-2-yl)benzenesulfonamide] | – | – | – | – | – | – | – | – | without xCT activity | – | – | – | – | – | –
